Results: patent US20060069132A1, “Azolecarboxamide herbicides” (priority 2004, published 2006)

Columns and labels:
[1] = test system: barnyardgrass; test: Test B pre-/postemergence herbicide test; type: in vivo, Echinochloa crus-galli
Method in brief: (§1)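 Plants compared with untreated controls 13–15 days post-treatment and given a visual 0–100 injury score. Applications: preemergence to seeds; postemergence at 1- to 4-leaf (2–18 cm); paddy species flooded, 2-leaf stage. Vehicle non-phytotoxic, surfactant included.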

[2] = test system: Surinam grass; test: Test B pre-/postemergence herbicide test; type: in vivo, Urochloa decumbens
Method in brief: (§2)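 Flooded paddy rice and barnyardgrass were treated at the 2-leaf stage; upland plantings received compound either on sown seed or on 1- to 4-leaf seedlings. All were kept 13–15 days in a greenhouse and scored visually, 0–100, relative to untreated plants.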

[3] = test system: cocklebur; test: Test B pre-/postemergence herbicide test; type: in vivo, Xanthium strumarium
Method in brief: as §1

[4] = test system: corn; test: Test B pre-/postemergence herbicide test; type: in vivo, Zea mays
Method in brief: as §2

[5] = test system: large crabgrass; test: Test B pre-/postemergence herbicide test; type: in vivo, Digitaria sanguinalis
Method in brief: as §2

[6] = test system: giant foxtail; test: Test B pre-/postemergence herbicide test; type: in vivo, Setaria faberi
Method in brief: as §2

[7] = test system: lambsquarters; test: Test B pre-/postemergence herbicide test; type: in vivo, Chenopodium album
Method in brief: as §2

[8] = test system: morningglory; test: Test B pre-/postemergence herbicide test; type: in vivo, Ipomoea coccinea
Method in brief: as §1

[9] = test system: pigweed; test: Test B pre-/postemergence herbicide test; type: in vivo, Amaranthus retroflexus
Method in brief: as §2

[10] = test system: rice; test: Test B pre-/postemergence herbicide test; type: in vivo, Oryza sativa; settings: 0 = no effect, 100 = complete control, preemergence; for Rice plant response rating (0 to 100 scale): 125 g ai/ha; for Plant response rating, Rice: 500 g ai/ha, visual rating
Method in brief: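 Evaluation is visual, comparing treated with control plants on a scale where 0 means no effect and 100 means full control. Treatments were preemergence, or postemergence on seedlings 2–18 cm tall, and held 13–15 days in the greenhouse.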

[11] = test system: velvetleaf; test: Test B pre-/postemergence herbicide test; type: in vivo, Abutilon theophrasti
Method in brief: as §2

[12] = test system: blackgrass; test: Test B postemergence herbicide test; type: in vivo, Alopecurus myosuroides
Method in brief: (§3)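 Formulated test chemicals went onto postemergence plants measuring 2 to 18 cm, at one to four leaves. For the paddy assay, species had reached two leaves. Scoring took place 13–15 days later by eye, relative to untreated plants, using 0 for no effect up to 100 for full control.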

[13] = test system: wheat; test: Test B postemergence herbicide test; type: in vivo, Triticum aestivum; design: key to Wheat plant response rating: 0 = no effect, 100 = complete control
Method in brief: (§4)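 Visual ratings, 0 (no effect) to 100 (complete control), made versus controls after 13–15 d greenhouse. Paddy plants treated at 2-leaf stage; postemergence plants at 1- to 4-leaf stage, 2–18 cm tall.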

[14] = test system: wild oat; test: Test B postemergence herbicide test; type: in vivo, Avena fatua
Method in brief: as §4

[15] = test system: rice; test: Test B flooded paddy test; type: in vivo, Oryza sativa; settings: 1000 g ai/ha, scale 0 to 100 (0 no effect, 100 complete control)
Method in brief: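 After treating 2-leaf paddy plants or 2–18 cm postemergence plants (1 to 4 leaves) with formulated chemical, researchers kept them in a greenhouse for 13–15 days. Effects were judged visually versus controls: 0 indicates none, 100 total control.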

[16] = test system: small flower umbrella sedge; test: Test B flooded paddy test; type: in vivo, Cyperus difformis; settings: 1000 g ai/ha, scale 0 to 100 (0 no effect, 100 complete control)
Method in brief: as §3

[17] = test system: ducksalad; test: Test B flooded paddy test; type: in vivo, Heteranthera limosa; settings: 1000 g ai/ha, scale 0 to 100 (0 no effect, 100 complete control)
Method in brief: as §3

[18] = test system: barnyardgrass; test: Test B flooded paddy test; type: in vivo, Echinochloa crus-galli; settings: 1000 g ai/ha, scale 0 to 100 (0 no effect, 100 complete control)
Method in brief: as §3

[19] = 125 g ai/ha; 0 = no effect, 100 = complete control; preemergence
[20] = 500 g ai/ha; visual rating, 0 = no effect, 100 = complete control; preemergence
[21] = postemergence, 125 g ai/ha; visual rating, scale 0 (no effect) to 100 (complete control)
[22] = postemergence, 500 g ai/ha; visual rating, scale 0 (no effect) to 100 (complete control)
[23] = postemergence, 500 g ai/ha; scale 0 to 100, 0 is no effect, 100 is complete control
[24] = 125 g ai/ha; visual rating, scale 0 (no effect) to 100 (complete control); postemergence

CCOC(=O)c1cc(NC(=O)c2cc(C(C)(C)C)nn2CC)c(F)cc1F [Compound 250]
20: Barnyardgrass plant response rating [1, 21] | Barnyardgrass plant response rating [1, 22] | Surinam Grass plant response rating [2, 23] | Corn plant response rating [4, 21] | Crabgrass, Large plant response rating [5, 21] | Crabgrass, Large plant response rating [5, 23] | Foxtail, Giant plant response rating [6, 21] | Morningglory plant response rating [8, 21] | Plant response rating, Velvetleaf [11, 20] | Velvetleaf plant response rating [11, 21] | Wheat plant response rating [13, 21] | Oat, Wild plant response rating [14, 21]
70: Pigweed plant response rating [9, 23] | Sedge, Umbrella plant response rating [16]
10: Plant response rating, Barnyardgrass [1, 20] | Surinam Grass plant response rating (0 to 100 scale) [2, 19] | Surinam Grass plant response rating [2, 21] | Plant response rating, Crabgrass, Large [5, 20] | Plant response rating, Foxtail, Giant [6, 20] | Plant response rating, Rice [10] | Blackgrass plant response rating [12, 21]
30: Plant response rating, Surinam Grass [2, 20] | Cocklebur plant response rating [3, 21] | Corn plant response rating [4, 23] | Foxtail, Giant plant response rating [6, 23] | Morningglory plant response rating [8, 23] | Pigweed plant response rating [9, 21] | Velvetleaf plant response rating [11, 23]
0: Barnyardgrass plant response rating (0 to 100 scale) [1, 19] | Cocklebur plant response rating (0 to 100 scale) [3, 19] | Plant response rating, Cocklebur [3, 20] | Corn plant response rating (0 to 100 scale) [4, 19] | Plant response rating, Corn [4, 20] | Crabgrass, Large plant response rating (0 to 100 scale) [5, 19] | Foxtail, Giant plant response rating (0 to 100 scale) [6, 19] | Lambsquarters plant response rating (0 to 100 scale) [7, 19] | Lambsquarters plant response rating [7, 21] | Morningglory plant response rating (0 to 100 scale) [8, 19] | Plant response rating, Morningglory [8, 20] | Pigweed plant response rating (0 to 100 scale) [9, 19] | Rice plant response rating (0 to 100 scale) [10] | Velvetleaf plant response rating (0 to 100 scale) [11, 19] | Barnyardgrass plant response rating [18]
50: Rice plant response rating [15]
40: Cocklebur plant response rating [3, 22] | Lambsquarters plant response rating [7, 23] | Blackgrass plant response rating [12, 22] | Wheat plant response rating [13, 23] | Oat, Wild plant response rating [14, 23] | Ducksalad plant response rating [17]

CCN(CC)C(=O)c1cc(NC(=O)c2cc(C(C)(C)C)nn2CC)c(F)cc1F [Compound 253]
10: Plant response rating, Barnyardgrass [1, 20] | Barnyardgrass plant response rating [1, 22] | Surinam Grass plant response rating (0 to 100 scale) [2, 19] | Cocklebur plant response rating [3, 21] | Velvetleaf plant response rating [11, 21] | Velvetleaf plant response rating [11, 23]
0: Barnyardgrass plant response rating (0 to 100 scale) [1, 19] | Barnyardgrass plant response rating [1, 21] | Surinam Grass plant response rating [2, 21] | Surinam Grass plant response rating [2, 23] | Cocklebur plant response rating (0 to 100 scale) [3, 19] | Plant response rating, Cocklebur [3, 20] | Corn plant response rating (0 to 100 scale) [4, 19] | Plant response rating, Corn [4, 20] | Corn plant response rating [4, 21] | Corn plant response rating [4, 23] | Crabgrass, Large plant response rating [5, 21] | Crabgrass, Large plant response rating [5, 23] | Foxtail, Giant plant response rating (0 to 100 scale) [6, 19] | Foxtail, Giant plant response rating [6, 21] | Foxtail, Giant plant response rating [6, 23] | Lambsquarters plant response rating (0 to 100 scale) [7, 19] | Morningglory plant response rating (0 to 100 scale) [8, 19] | Plant response rating, Morningglory [8, 20] | Morningglory plant response rating [8, 21] | Rice plant response rating (0 to 100 scale) [10] | Plant response rating, Rice [10] | Velvetleaf plant response rating (0 to 100 scale) [11, 19] | Barnyardgrass plant response rating [18]
60: Ducksalad plant response rating [17]
50: Rice plant response rating [15]
20: Cocklebur plant response rating [3, 22] | Crabgrass, Large plant response rating (0 to 100 scale) [5, 19] | Lambsquarters plant response rating [7, 21] | Pigweed plant response rating [9, 21] | Plant response rating, Velvetleaf [11, 20] | Blackgrass plant response rating [12, 21] | Blackgrass plant response rating [12, 22] | Wheat plant response rating [13, 21] | Oat, Wild plant response rating [14, 21] | Sedge, Umbrella plant response rating [16]
30: Plant response rating, Surinam Grass [2, 20] | Plant response rating, Foxtail, Giant [6, 20] | Lambsquarters plant response rating [7, 23] | Morningglory plant response rating [8, 23] | Pigweed plant response rating [9, 23] | Wheat plant response rating [13, 23] | Oat, Wild plant response rating [14, 23]

CCn1nc(C(C)(C)C)cc1C(=O)Nc1cc(OC)ccc1OC [Compound 297]
40: Plant response rating, Pigweed [9, 20] | Pigweed plant response rating [9, 23]
80: Plant response rating, Crabgrass, Large [5, 20] | Plant response rating, Lambsquarters [7, 20] | Sedge, Umbrella plant response rating [16]
20: Plant response rating, Barnyardgrass [1, 20] | Barnyardgrass plant response rating [1, 23] | Surinam Grass plant response rating [2, 24] | Plant response rating, Surinam Grass [2, 20] | Crabgrass, Large plant response rating (0 to 100 scale) [5, 19] | Crabgrass, Large plant response rating [5, 24] | Foxtail, Giant plant response rating [6, 24] | Lambsquarters plant response rating [7, 23] | Blackgrass plant response rating [12, 23] | Oat, Wild plant response rating [14, 23] | Rice plant response rating [15]
0: Barnyardgrass plant response rating (0 to 100 scale) [1, 19] | Cocklebur plant response rating (0 to 100 scale) [3, 19] | Cocklebur plant response rating [3, 24] | Plant response rating, Cocklebur [3, 20] | Cocklebur plant response rating [3, 23] | Corn plant response rating (0 to 100 scale) [4, 19] | Plant response rating, Corn [4, 20] | Lambsquarters plant response rating (0 to 100 scale) [7, 19] | Morningglory plant response rating [8, 24] | Pigweed plant response rating (0 to 100 scale) [9, 19] | Pigweed plant response rating [9, 24] | Rice plant response rating (0 to 100 scale) [10] | Velvetleaf plant response rating [11, 24] | Wheat plant response rating [13, 24] | Oat, Wild plant response rating [14, 24]
60: Plant response rating, Foxtail, Giant [6, 20]
100: Corn plant response rating [4, 23]
30: Surinam Grass plant response rating [2, 23] | Crabgrass, Large plant response rating [5, 23] | Foxtail, Giant plant response rating [6, 23] | Morningglory plant response rating [8, 23] | Ducksalad plant response rating [17] | Barnyardgrass plant response rating [18]
10: Barnyardgrass plant response rating [1, 24] | Surinam Grass plant response rating (0 to 100 scale) [2, 19] | Corn plant response rating [4, 24] | Foxtail, Giant plant response rating (0 to 100 scale) [6, 19] | Lambsquarters plant response rating [7, 24] | Morningglory plant response rating (0 to 100 scale) [8, 19] | Plant response rating, Morningglory [8, 20] | Plant response rating, Rice [10] | Plant response rating, Velvetleaf [11, 20] | Velvetleaf plant response rating [11, 23] | Blackgrass plant response rating [12, 24] | Wheat plant response rating [13, 23]
